Assay [1] deals with MV4:11 human cancer cell lines. The assay is described as follows: Cellular viability / anti-proliferative assay, CellTiter-Glo, 5 day protocol. To be noted: Homo sapiens, MV4-11, 120 h, MV4:11 cells; 5 day incubation; CellTiter-Glo; mean of at least two replicates; read-out: GI50 on cellular proliferation of MV4:11 human cancer cell lines. Type of assay: cell-based. Summed up: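 MV-4-11 cells in IMDM with 10% FBS, 200 cells/well, exposed 5 days to 22 two-fold dilutions from 30 μM, final DMSO 0.3%. Viability read by CellTiter-Glo luminescence; GI50 from sigmoidal dose-response fit, mean of at least two replicates.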

Assay [2] concerns the target WDR5 (Homo sapiens, UniProt P61964). The assay is described as follows: TR-FRET competition binding assay, displacement of 10mer-Thr-FAM MLL peptide probe from His-tagged WDR5. To be noted: WDR5-His tag (residues 24-334) 2 nM; 10mer-Thr-FAM 150 nM; 60 min, room temperature; read-out: Ki for Inhibition of WDR5 by TR-FRET assay. How it is done:
Time Resolved-Fluorescence Energy Transfer Competition Assay […] Excess 10mer-Thr-FAM probe was utilized with His-tagged WDR5 in conjunction with a commercial anti-His antibody containing a Terbium label. The LanthaScreenTM Elite Tb-anti-HIS Antibody from ThermoFisher Scientific was used for this purpose. […] The 10mer-Thr-FAM probe when bound to WDR5 will undergo a FRET interaction with the Tb-anti-HIS and emit at 520 nm. […] WDR[…] 10[…] used at 150 nM. […] A source plate is prepared using an Echo Liquid Handler, which distributes the compounds to the assay plate (white, flat-bottom; OptiPlate) in a 10-point, 5-fold dilution schemes with a top concentration of 5 μM, in a final volume of 20 μL. […] The final DMSO concentration in each well of the assay plate is 1% or lower. The plate is covered, shielded from light, and incubated for 60 minutes at room temperature with rocking. 10mer-Thr-FAM and Anti-His terbium antibody fluorescence is then measured on a Biotek Cytation 3 at excitation wavelength of 340 nm, and emission wavelengths of 495 nm and 520 nm. […] TR-FRET signal is plotted and IC50 and Ki values are calculated according to the formula of Wang Z. FEBS Lett (1996) 3, 245. Ki=[I]50/([L]50/Kd+[P]0/Kd+1) where [I]50 is the concentration of the free inhibitor at 50% inhibition, [L]50 is the concentration of the free labeled ligand at 50% inhibition, [P]0 is the concentration of the free protein at 0% inhibition, Kd represents the dissociation constant of the FITC-MLL or 10mer-Thr-FAM probe for WDR5. Total fluorescence is also measured, to rule out compounds that are inherently fluorescent or able to act as quenchers in the assay. TR-FRET Binding Assay
(Time-resolved FRET reads energy transfer from a long-lived donor to a nearby acceptor.)

Molecules are shown by their SMILES. pKi: −log10 of the molar value. A value given as a limit tells only on which side of the number the result lay.

`COc1cc(C(=O)N2CCCC2)c2nccc(N3CCc4c(cc(Cn5ccnc5)cc4-c4cn(C)nc4C(F)(F)F)C3=O)c2c1` [Example 44, 7-((1H-Imidazol-1-yl)methyl)-2-(6-methoxy-8-(pyrrolidine-1-carbonyl)quinolin-4-yl)-5-(1-methyl-3-(trifluoromethyl)-1H-pyrazol-4-yl)-3,4-dihydroisoquinolin-1(2H)-one]: the GI50 in assay [1] worked out at 353 nM. Further, the pKi (in general, the Ki on a negative log10 scale, so that one unit is a factor of ten) in assay [2] is over 10.70.
In the case of `COCCNC(=O)c1cc(OC)cc2c(N3CCc4c(cc(Cn5ccnc5)cc4-c4cn(C)nc4C(F)(F)F)C3=O)ccnc12` [Example 49, 4-(7-((1H-Imidazol-1-yl)methyl)-5-(1-methyl-3-(trifluoromethyl)-1H-pyrazol-4-yl)-1-oxo-3,4-dihydroisoquinolin-2(1H)-yl)-6-methoxy-N-(2-methoxyethyl)quinoline-8-carboxamide], the GI50 in assay [1] came out at 34 nM. In addition, the pKi in assay [2] was over 10.70.
The like results for `CCn1cc(-c2cc(Cn3ccnc3C)cc3c2CCN(c2cccc4ncc(OC)cc24)C3=O)c(C(F)(F)F)n1` [Example 50, 5-(1-Ethyl-3-(trifluoromethyl)-1H-pyrazol-4-yl)-2-(3-methoxyquinolin-5-yl)-7-((2-methyl-1H-imidazol-1-yl)methyl)-3,4-dihydroisoquinolin-1(2H)-one] were, in that order, 22 nM and over 10.70.
For `CCn1cc(-c2cc(Cn3ccnc3C)cc3c2CCN(c2cc(C)nc4ccc(OC)cc24)C3=O)c(C(F)(F)F)n1` [Example 51, 5-(1-Ethyl-3-(trifluoromethyl)-1H-pyrazol-4-yl)-2-(6-methoxy-2-methylquinolin-4-yl)-7-((2-methyl-1H-imidazol-1-yl)methyl)-3,4-dihydroisoquinolin-1(2H)-one] the same measures were under 20 nM and over 10.70.
With `CCn1cc(-c2cc(Cn3ccnc3)cc3c2CCN(c2cccc4ncc(OC)cc24)C3=O)c(C(F)(F)F)n1` [Example 52, 7-((1H-Imidazol-1-yl)methyl)-5-(1-ethyl-3-(trifluoromethyl)-1H-pyrazol-4-yl)-2-(3-methoxyquinolin-5-yl)-3,4-dihydroisoquinolin-1(2H)-one], in assay [1], the GI50 turned out to be 62 nM. For the same compound, in assay [2], the pKi is 10.55.
For `CCn1cc(-c2cc(Cn3ccnc3)cc3c2CCN(c2cc(C)nc4ccc(OC)cc24)C3=O)c(C(F)(F)F)n1` [Example 53, 7-((1H-Imidazol-1-yl)methyl)-5-(1-ethyl-3-(trifluoromethyl)-1H-pyrazol-4-yl)-2-(6-methoxy-2-methylquinolin-4-yl)-3,4-dihydroisoquinolin-1(2H)-one] the same measures were 59 nM and over 10.70.
The like results for `CCn1cc(-c2cc(Cn3ccnc3)cc3c2CCN(c2cncc4ccc(C)cc24)C3=O)c(C(F)(F)F)n1` [Example 54, 7-((1H-Imidazol-1-yl)methyl)-5-(1-ethyl-3-(trifluoromethyl)-1H-pyrazol-4-yl)-6′-methyl-3,4-dihydro-1H-[2,4′-biisoquinolin]-1-one] were, in that order, 71 nM and 10.55.
Consider `Cc1ccc2cncc(N3CCc4c(cc(Cc5cnc[nH]5)cc4-c4cn(C)nc4C(F)(F)F)C3=O)c2c1` [Example 55, 7-((1H-imidazol-5-yl)methyl)-6′-methyl-5-(1-methyl-3-(trifluoromethyl)-1H-pyrazol-4-yl)-3,4-dihydro-1H-[2,4′-biisoquinolin]-1-one], for which, in assay [1], the GI50 turned out to be 59 nM. Besides, the pKi in assay [2] was over 10.70.
Regarding `Cc1ccc2cncc(N3CCc4c(cc(Cc5ncc[nH]5)cc4-c4cn(C)nc4C(F)(F)F)C3=O)c2c1` [Example 56, 7-((1H-Imidazol-2-yl)methyl)-6′-methyl-5-(1-methyl-3-(trifluoromethyl)-1H-pyrazol-4-yl)-3,4-dihydro-1H-[2,4′-biisoquinolin]-1-one], the GI50 in assay [1] came out at 97 nM. Further, the pKi in assay [2] was 10.51.
`Cc1ccc2cncc(N3CCc4c(cc(C(O)c5cn(C)cn5)cc4-c4cn(C)nc4C(F)(F)F)C3=O)c2c1` (stereo not shown) [Example 57, 7-(Hydroxy(1-methyl-1H-imidazol-4-yl)methyl)-6′-methyl-5-(1-methyl-3-(trifluoromethyl)-1H-pyrazol-4-yl)-3,4-dihydro-1H-[2,4′-biisoquinolin]-1-one]: the GI50 in assay [1] was 29000 nM. In addition, the pKi in assay [2] is 7.57.
For `Cc1ccc2cncc(N3CCc4c(cc(Cc5cn(C)cn5)cc4-c4cn(C)nc4C(F)(F)F)C3=O)c2c1` [Example 58, 6′-Methyl-7-((1-methyl-1H-imidazol-4-yl)methyl)-5-(1-methyl-3-(trifluoromethyl)-1H-pyrazol-4-yl)-3,4-dihydro-1H-[2,4′-biisoquinolin]-1-one] the same measures were 191 nM and 10.60.
On to `Cc1ccc2cncc(N3CCc4c(cc(Cc5ccncc5)cc4-c4cn(C)nc4C(F)(F)F)C3=O)c2c1` [Example 59, 6′-Methyl-5-(1-methyl-3-(trifluoromethyl)-1H-pyrazol-4-yl)-7-(pyridin-4-ylmethyl)-3,4-dihydro-1H-[2,4′-biisoquinolin]-1-one], for which the GI50 in assay [1] came to 4380 nM. Further, the pKi in assay [2] was 8.85.
For `Cc1nccn1Cc1cc2c(c(-c3cn(C)nc3C(F)(F)F)c1)CCN(C1CCCc3ccc(Br)cc31)C2=O` (stereo not shown) [Example 60], the GI50 in assay [1] worked out at 38 nM. For the same compound, in assay [2], the negative logarithm of the Ki (pKi) was 10.64.
For the compound `Cc1nccn1Cc1cc2c(c(-c3cn(C)nc3C(F)(F)F)c1)CCN(C1CCOc3ccc(Br)cc31)C2=O` (stereo not shown) [Example 61, 2-(6-Bromochroman-4-yl)-7-((2-methyl-1H-imidazol-1-yl)methyl)-5-(1-methyl-3-(trifluoromethyl)-1H-pyrazol-4-yl)-3,4-dihydroisoquinolin-1(2H)-one], the GI50 in assay [1] was found to be 31 nM. Besides, the pKi in assay [2] was 10.28.
In the case of `Cc1ccc2c(c1)C(N1CCc3c(cc(Cn4ccnc4C)cc3-c3cn(C)nc3C(F)(F)F)C1=O)CCO2` (stereo not shown) [Example 62, 7-((2-Methyl-1H-imidazol-1-yl)methyl)-5-(1-methyl-3-(trifluoromethyl)-1H-pyrazol-4-yl)-2-(6-methylchroman-4-yl)-3,4-dihydroisoquinolin-1(2H)-one], in assay [1], the GI50 stood at 25 nM. Moreover, the pKi in assay [2] was 10.55.
On to `Cc1nccn1Cc1cc2c(c(-c3cn(C)nc3C(F)(F)F)c1)CCN(C1CCOc3ccc(C4CC4)cc31)C2=O` (stereo not shown) [Example 63, 2-(6-Cyclopropylchroman-4-yl)-7-((2-methyl-1H-imidazol-1-yl)methyl)-5-(1-methyl-3-(trifluoromethyl)-1H-pyrazol-4-yl)-3,4-dihydroisoquinolin-1(2H)-one], for which the GI50 in assay [1] was 87 nM. In addition, the pKi in assay [2] was 10.17.
For `Cc1nccn1Cc1cc2c(c(-c3cn(C)nc3C(F)(F)F)c1)CCN(C1CCCc3ncccc31)C2=O` (stereo not shown) [Example 64, 7-((2-Methyl-1H-imidazol-1-yl)methyl)-5-(1-methyl-3-(trifluoromethyl)-1H-pyrazol-4-yl)-2-(5,6,7,8-tetrahydroquinolin-5-yl)-3,4-dihydroisoquinolin-1(2H)-one] the same measures were 284 nM and 10.38.
With `COc1cnc2c(c1)C(N1CCc3c(cc(Cn4ccnc4C)cc3-c3cn(C)nc3C(F)(F)F)C1=O)CCC2` (stereo not shown) [Example 65, 2-(3-Methoxy-5,6,7,8-tetrahydroquinolin-5-yl)-7-((2-methyl-1H-imidazol-1-yl)methyl)-5-(1-methyl-3-(trifluoromethyl)-1H-pyrazol-4-yl)-3,4-dihydroisoquinolin-1(2H)-one], the GI50 in assay [1] is under 20 nM. For the same compound, the pKi in assay [2] was over 10.70.
For `COc1ccc2c(c1)C(N1CCc3c(cc(Cn4ccnc4)cc3-c3cn(C)nc3C(F)(F)F)C1=O)CCC2` (stereo not shown) [Example 66, 7-((1H-Imidazol-1-yl)methyl)-2-(7-methoxy-1,2,3,4-tetrahydronaphthalen-1-yl)-5-(1-methyl-3-(trifluoromethyl)-1H-pyrazol-4-yl)-3,4-dihydroisoquinolin-1(2H)-one] the same measures were 84 nM and 10.21.
For `COc1ccc2c(c1)C(N1CCc3c(cc(Cn4ccnc4)cc3-c3cn(C)nc3C(F)(F)F)C1=O)CCO2` (stereo not shown) [Example 67, 7-((1H-Imidazol-1-yl)methyl)-2-(6-methoxychroman-4-yl)-5-(1-methyl-3-(trifluoromethyl)-1H-pyrazol-4-yl)-3,4-dihydroisoquinolin-1(2H)-one] the same measures were 35 nM and 10.21.

(Values after patent US12692249B2, “WDR5 inhibitors and modulators” (Vanderbilt University, priority 2019, dated 2026).)
